{
  "source": "ChEMBL document CHEMBL5252541",
  "about": "“Repurposing antipsychotic drugs into antifungal agents: Synergistic combinations of azoles and bromperidol derivatives in the treatment of various fungal infections” (Eur J Med Chem, 2017)",
  "key": {"[1]": {"tested_on": "Candida albicans", "assay": "Synergistic antifungal activity against Candida albicans ATCC 64124 assessed as compound MIC measured after 48 hrs in presence of posaconazole by checkboard based microplate reader analysis", "format": "functional"}, "[2]": {"tested_on": "Candida albicans", "assay": "Synergistic antifungal activity against Candida albicans ATCC 90819 assessed as fractional inhibitory concentration index measured for 72 hrs in presence of voriconazole", "format": "functional"}, "[3]": {"tested_on": "Aspergillus terreus", "assay": "Additive antifungal activity against Aspergillus terreus ATCC MYA-3633 assessed as fractional inhibitory concentration index measured for 72 hrs in presence of voriconazole", "format": "functional"}, "[4]": {"tested_on": "Candida albicans", "assay": "Additive antifungal activity against Candida albicans ATCC 64124 assessed as fractional inhibitory concentration index measured for 72 hrs in presence of fluconazole", "format": "functional"}, "[5]": {"tested_on": "Candida albicans", "assay": "Antifungal activity against Candida albicans ATCC MYA-1237 measured after 48 hrs by broth microdilution analysis", "format": "functional"}, "[6]": {"tested_on": "Candida albicans", "assay": "Additive antifungal activity against Candida albicans MYA-1003 assessed as fractional inhibitory concentration index measured for 72 hrs in presence of voriconazole"}, "[7]": {"tested_on": "Candida albicans", "assay": "Additive antifungal activity against Candida albicans ATCC 10231 assessed as fractional inhibitory concentration index measured for 72 hrs in presence of itraconazole", "format": "functional"}, "[8]": {"tested_on": "Candida albicans", "assay": "Antifungal activity against Candida albicans ATCC MYA-2310 measured after 48 hrs by broth microdilution analysis", "format": "functional"}, "[9]": {"tested_on": "Candida albicans", "assay": "Synergistic antifungal activity against Candida albicans ATCC 10231 assessed as compound MIC measured after 48 hrs in presence of posaconazole by checkboard based microplate reader analysis", "format": "functional"}, "[10]": {"tested_on": "Candida albicans", "assay": "Synergistic antifungal activity against Candida albicans ATCC 10231 assessed as compound MIC measured after 48 hrs in presence of ketoconazole by checkboard based microplate reader analysis", "format": "functional"}, "[11]": {"tested_on": "Candida albicans", "assay": "Antifungal activity against Candida albicans ATCC 10231 measured after 48 hrs by broth microdilution analysis", "format": "functional"}, "[12]": {"tested_on": "Candida albicans", "assay": "Synergistic antifungal activity against Candida albicans ATCC 10231 assessed as compound MIC measured after 48 hrs in presence of itraconazole by checkboard based microplate reader analysis", "format": "functional"}, "[13]": {"tested_on": "Aspergillus terreus", "assay": "Additive antifungal activity against Aspergillus terreus ATCC MYA-3633 assessed as fractional inhibitory concentration index measured for 72 hrs in presence of posaconazole", "format": "functional"}, "[14]": {"tested_on": "Candida albicans", "assay": "Additive antifungal activity against Candida albicans ATCC 10231 assessed as fractional inhibitory concentration index measured for 72 hrs in presence of fluconazole", "format": "functional"}, "[15]": {"tested_on": "Candida albicans", "assay": "Antifungal activity against Candida albicans ATCC MYA-2876 measured after 48 hrs by broth microdilution analysis", "format": "functional"}, "[16]": {"tested_on": "Nakaseomyces glabratus", "assay": "Additive antifungal activity against Candida glabrata ATCC 2001 assessed as fractional inhibitory concentration index measured for 72 hrs in presence of voriconazole", "format": "functional"}, "[17]": {"tested_on": "Candida albicans", "assay": "Synergistic antifungal activity against Candida albicans ATCC 64124 assessed as compound MIC measured after 48 hrs in presence of ketoconazole by checkboard based microplate reader analysis", "format": "functional"}, "[18]": {"tested_on": "Candida albicans", "assay": "Synergistic antifungal activity against Candida albicans ATCC 64124 assessed as compound MIC measured after 48 hrs in presence of voriconazole by checkboard based microplate reader analysis", "format": "functional"}, "[19]": {"tested_on": "Candida albicans", "assay": "Antifungal activity against Candida albicans ATCC 64124 measured after 48 hrs by broth microdilution analysis", "format": "functional"}, "[20]": {"tested_on": "Candida albicans", "assay": "Antifungal activity against Candida albicans ATCC MYA-1003 measured after 48 hrs by broth microdilution analysis", "format": "functional"}, "[21]": {"tested_on": "Candida albicans", "assay": "Synergistic antifungal activity against Candida albicans ATCC 64124 assessed as compound MIC measured after 48 hrs in presence of itraconazole by checkboard based microplate reader analysis", "format": "functional"}, "[22]": {"tested_on": "Nakaseomyces glabratus", "assay": "Antifungal activity against Candida glabrata ATCC 2001 measured after 48 hrs by broth microdilution analysis", "format": "functional"}, "[23]": {"tested_on": "Candida albicans", "assay": "Additive antifungal activity against Candida albicans ATCC MYA-2310 assessed as fractional inhibitory concentration index measured for 72 hrs in presence of voriconazole", "format": "functional"}, "[24]": {"tested_on": "Candida albicans", "assay": "Additive antifungal activity against Candida albicans ATCC MYA-1237 assessed as fractional inhibitory concentration index measured for 72 hrs in presence of voriconazole", "format": "functional"}, "[25]": {"tested_on": "Candida albicans", "assay": "Partial synergistic antifungal activity against Candida albicans ATCC MYA-1003 assessed as fractional inhibitory concentration index measured for 72 hrs in presence of voriconazole", "format": "functional"}, "[26]": {"tested_on": "Candida albicans", "assay": "Synergistic antifungal activity against Candida albicans ATCC 64124 assessed as fractional inhibitory concentration index measured for 72 hrs in presence of posaconazole", "format": "functional"}, "[27]": {"tested_on": "Candida albicans", "assay": "Additive antifungal activity against Candida albicans ATCC 64124 assessed as fractional inhibitory concentration index measured for 72 hrs in presence of itraconazole", "format": "functional"}, "[28]": {"tested_on": "Candida albicans", "assay": "Additive antifungal activity against Candida albicans ATCC MYA-1237 assessed as fractional inhibitory concentration index measured for 72 hrs in presence of posaconazole", "format": "functional"}, "[29]": {"tested_on": "Candida albicans", "assay": "Partial synergistic antifungal activity against Candida albicans ATCC 90819 assessed as fractional inhibitory concentration index measured for 72 hrs in presence of posaconazole", "format": "functional"}, "[30]": {"tested_on": "Candida albicans", "assay": "Partial synergistic antifungal activity against Candida albicans ATCC 64124 assessed as fractional inhibitory concentration index measured for 72 hrs in presence of voriconazole", "format": "functional"}, "[31]": {"tested_on": "Candida albicans", "assay": "Partial synergistic antifungal activity against Candida albicans MYA-2876 assessed as fractional inhibitory concentration index measured for 72 hrs in presence of posaconazole", "format": "functional"}, "[32]": {"tested_on": "Nakaseomyces glabratus", "assay": "Additive antifungal activity against Candida glabrata ATCC 2001 assessed as fractional inhibitory concentration index measured for 72 hrs in presence of posaconazole", "format": "functional"}, "[33]": {"tested_on": "Candida albicans", "assay": "Synergistic antifungal activity against Candida albicans ATCC 64124 assessed as compound MIC measured after 48 hrs in presence of fluconazole by checkboard based microplate reader analysis", "format": "functional"}, "[34]": {"tested_on": "Aspergillus terreus", "assay": "Antifungal activity against Aspergillus terreus ATCC MYA-3633 measured after 48 hrs by broth microdilution analysis", "format": "functional"}, "[35]": {"tested_on": "Candida albicans", "assay": "Partial synergistic antifungal activity against Candida albicans ATCC 10231 assessed as fractional inhibitory concentration index measured for 72 hrs in presence of ketoconazole", "format": "functional"}, "[36]": {"tested_on": "Candida albicans", "assay": "Antifungal activity against Candida albicans ATCC 90819 measured after 48 hrs by broth microdilution analysis", "format": "functional"}, "[37]": {"tested_on": "Candida albicans", "assay": "Synergistic antifungal activity against Candida albicans ATCC 10231 assessed as compound MIC measured after 48 hrs in presence of voriconazole by checkboard based microplate reader analysis", "format": "functional"}, "[38]": {"tested_on": "Candida albicans", "assay": "Synergistic antifungal activity against Candida albicans ATCC 10231 assessed as compound MIC measured after 48 hrs in presence of fluconazole by checkboard based microplate reader analysis", "format": "functional"}, "[39]": {"tested_on": "Candida albicans", "assay": "Partial synergistic antifungal activity against Candida albicans ATCC 10231 assessed as fractional inhibitory concentration index measured for 72 hrs in presence of voriconazole", "format": "functional"}, "[40]": {"tested_on": "Candida albicans", "assay": "Partial synergistic antifungal activity against Candida albicans ATCC 64124 assessed as fractional inhibitory concentration index measured for 72 hrs in presence of ketoconazole", "format": "functional"}, "[41]": {"tested_on": "Candida albicans", "assay": "Additive antifungal activity against Candida albicans ATCC MYA-2876 assessed as fractional inhibitory concentration index measured for 72 hrs in presence of voriconazole", "format": "functional"}, "[42]": {"tested_on": "Candida albicans", "assay": "Partial synergistic antifungal activity against Candida albicans ATCC MYA-1003 assessed as fractional inhibitory concentration index measured for 72 hrs in presence of posaconazole", "format": "functional"}},
  "data": [
    {"smiles": "O=C(CCCN1CCC(O)(c2ccc(Br)cc2)CC1)c1ccc(Cl)cc1", "values": [
      {"measurement": "MIC", "setting": "[1]", "value": 4, "unit": "µg/mL"},
      {"measurement": "fractional inhibitory concentration index (FICI)", "setting": "[2]", "value": 0.31},
      {"measurement": "fractional inhibitory concentration index (FICI)", "setting": "[3]", "value": 2},
      {"measurement": "fractional inhibitory concentration index (FICI)", "setting": "[4]", "value": 2},
      {"measurement": "MIC", "setting": "[5]", "value": "> 32", "unit": "µg/mL"},
      {"measurement": "fractional inhibitory concentration index (FICI)", "setting": "[6]", "value": 0.75},
      {"measurement": "fractional inhibitory concentration index (FICI)", "setting": "[7]", "value": 2},
      {"measurement": "MIC", "setting": "[8]", "value": "> 32", "unit": "µg/mL"},
      {"measurement": "MIC", "setting": "[9]", "value": 4, "unit": "µg/mL"},
      {"measurement": "MIC", "setting": "[10]", "value": 16, "unit": "µg/mL"},
      {"measurement": "MIC", "setting": "[11]", "value": "> 32", "unit": "µg/mL"},
      {"measurement": "MIC", "setting": "[12]", "value": "> 32", "unit": "µg/mL"},
      {"measurement": "fractional inhibitory concentration index (FICI)", "setting": "[13]", "value": 2},
      {"measurement": "fractional inhibitory concentration index (FICI)", "setting": "[14]", "value": 1.5},
      {"measurement": "MIC", "setting": "[15]", "value": "> 32", "unit": "µg/mL"},
      {"measurement": "fractional inhibitory concentration index (FICI)", "setting": "[16]", "value": 2},
      {"measurement": "MIC", "setting": "[17]", "value": 0.5, "unit": "µg/mL"},
      {"measurement": "MIC", "setting": "[18]", "value": 16, "unit": "µg/mL"},
      {"measurement": "MIC", "setting": "[19]", "value": "> 32", "unit": "µg/mL"},
      {"measurement": "MIC", "setting": "[20]", "value": "> 32", "unit": "µg/mL"},
      {"measurement": "MIC", "setting": "[21]", "value": "> 32", "unit": "µg/mL"},
      {"measurement": "MIC", "setting": "[22]", "value": "> 32", "unit": "µg/mL"},
      {"measurement": "fractional inhibitory concentration index (FICI)", "setting": "[23]", "value": 1},
      {"measurement": "fractional inhibitory concentration index (FICI)", "setting": "[24]", "value": 1},
      {"measurement": "fractional inhibitory concentration index (FICI)", "setting": "[25]", "value": 0.75},
      {"measurement": "fractional inhibitory concentration index (FICI)", "setting": "[26]", "value": 0.19},
      {"measurement": "fractional inhibitory concentration index (FICI)", "setting": "[27]", "value": 2},
      {"measurement": "fractional inhibitory concentration index (FICI)", "setting": "[28]", "value": 1.02},
      {"measurement": "fractional inhibitory concentration index (FICI)", "setting": "[29]", "value": 0.52},
      {"measurement": "fractional inhibitory concentration index (FICI)", "setting": "[30]", "value": 0.63},
      {"measurement": "fractional inhibitory concentration index (FICI)", "setting": "[31]", "value": 0.52},
      {"measurement": "fractional inhibitory concentration index (FICI)", "setting": "[32]", "value": 2},
      {"measurement": "MIC", "setting": "[33]", "value": "> 32", "unit": "µg/mL"},
      {"measurement": "MIC", "setting": "[34]", "value": "> 32", "unit": "µg/mL"},
      {"measurement": "fractional inhibitory concentration index (FICI)", "setting": "[35]", "value": 0.75},
      {"measurement": "MIC", "setting": "[36]", "value": "> 32", "unit": "µg/mL"},
      {"measurement": "MIC", "setting": "[37]", "value": 16, "unit": "µg/mL"},
      {"measurement": "MIC", "setting": "[38]", "value": 16, "unit": "µg/mL"},
      {"measurement": "fractional inhibitory concentration index (FICI)", "setting": "[39]", "value": 0.75},
      {"measurement": "fractional inhibitory concentration index (FICI)", "setting": "[40]", "value": 0.52},
      {"measurement": "fractional inhibitory concentration index (FICI)", "setting": "[41]", "value": 1},
      {"measurement": "fractional inhibitory concentration index (FICI)", "setting": "[42]", "value": 0.53}
    ]}
  ]
}
